# Values of other authors in patent US12697315B2, “Treatment for interstitial lung disease” (United Therapeutics Corporation, priority 2020, dated 2026).
# Like-named read-outs stand apart in the source and are kept apart here.
# Tested on: IPF
# Conditions: 52 weeks, cited from earlier work
Structure (SMILES),"FVC % predicted, placebo corrected, rate of decline [% predicted]","FVC, placebo corrected, rate of decline","FVC, placebo corrected, rate of decline (pirfenidone) [mL]"
"COC(=O)c1ccc2c(c1)NC(=O)/C2=C(\Nc1ccc(N(C)C(=O)CN2CCN(C)CC2)cc1)c1ccccc1 [Nintedanib, nintedanib]",3.2,~ 109 mL,–
"Cc1ccc(=O)n(-c2ccccc2)c1 [Pirfenidone, pirfenidone]",–,–,153 to 193
